Assay results: US8722929B2, “N-[2-amino-4-(phenylmethoxy)phenyl] amides and related compounds as potassium channel modulators” (Valeant Pharmaceuticals International, priority 2006, dated 2014)
Read-outs that look alike come from different tables or passages of the source.

Target: T1, KCNQ 2/3 (Rattus norvegicus, UniProt O88943+O88944)
T1 construct: endogenous in cells; host or cells: PC-12 cells differentiated with NGF
Assay: KCNQ 2/3 activator assay by rubidium (Rb+) efflux from NGF-differentiated PC-12 cells
Type: cell-based
Experimental: Compounds of the following formula were assayed as KCNQ 2/3 activators by measuring rhubidium release.
PC-12 cells were grown at 37° C. and 5% CO2 in DMEM/F12 Medium supplemented with 10% horse serum, 5% fetal bovine serum, 2 mM glutamine, 100 U/ml penicillin, 100 U/ml streptomycin. They were plated in poly-D-lysine-coated 96-well cell culture microplates at a density of 40,000 cells/well and differentiated with 100 ng/ml NGF-7s for 2-5 days. For the assay, the medium was aspirated and the cells were washed once with 0.2 ml in wash buffer (25 mM Hepes, pH 7.4, 150 mM NaCl, 1 mM MgCl2, 0.8 mM NaH2PO4, 2 mM CaCl2). The cells were then loaded with 0.2 ml Rb^+ loading buffer (wash buffer plus 5.4 mM […], 5 mM glucose) and incubated at 37° C. for 2 h. Attached cells were quickly washed three times with buffer (same as Rb^+ loading buffer, but containing 5.4 mM KCl instead of RbCl) to remove extracellular Rb^+. Immediately following the wash, 0.2 ml of depolarization buffer (wash buffer plus 15 mM KCl) with or without compounds was added to the cells to activate efflux of potassium ion channels. After incubation for 10 min at room temperature, the supernatant was carefully removed and collected. Cells were lysed by the addition of 0.2 ml of lysis buffer (depolarization buffer plus 0.1% Triton X-100) and the cell lysates were also collected. If collected samples were not immediately analyzed for Rb^+ contents by atomic absorption spectroscopy (see below), they were stored at 4° C. without any negative effects on subsequent Rb^+ analysis.
The concentration of Rb^+ in the supernatants (Rb^+ sup) and cell lysates (Rb^+Lys) was quantified using an ICR8000 flame atomic absorption spectrometer (Aurora Biomed Inc., Vancouver, B.C.) under conditions defined by the manufacturer. One 0.05 ml samples were processed automatically from microtiter plates by dilution with an equal volume of Rb^+ sample analysis buffer and injection into an air-acetylene flame. The amount of Rb^+ in the sample was measured by absorption at 780 nm using a hollow cathode lamp as light source and a PMT detector. A calibration curve covering the range 0-5 mg/L Rb^+ in sample analysis buffer was generated with each set of plates. The percent Rb^+ efflux (F) was defined by F=[Rb^+Sup/(Rb^+Sup+Rb^+Lys)]×100%
The effect (E) of a compound was defined by: E=[(Fc−Fb)/(Fs−Fb)]×100% where the Fc is the efflux in the presence of compound in depolarization buffer, Fb is the efflux in basal buffer, and Fs is the efflux in depolarization buffer, and Fc is the efflux in the presence of compound in depolarization buffer. The effect (E) and compound concentration relationship was plotted to calculate an EC50 value, a compound's concentration for 50% of maximal Rb^+ efflux.

[1] = Rb+ efflux, PC-12 cells, depolarization buffer 15 mM KCl, 10 min, compounds of formula A, read-out: EC50
[2] = Rb+ efflux, PC-12 cells, depolarization buffer 15 mM KCl, 10 min, compounds of formula B, read-out: EC50

CC(C)(C)CC(=O)Nc1ccc(OCc2ccc(F)cc2)cc1N [I, N-(2-amino-4-(4-fluorobenzyloxy)phenyl)-3,3-dimethylbutanamide]
EC50 [1]: < 2000 nM

CC(C)(C)CC(=O)Nc1ccc(OCc2ccc(F)c(F)c2)cc1N [II, N-(2-amino-4-(3,4-difluorobenzyloxy)phenyl)-3,3-dimethylbutanamide]
EC50 [1]: < 2000 nM

CC(C)(C)CC(=O)Nc1ccc(OCc2ccc(Cl)s2)cc1N [III, N-(2-amino-4-((5-chlorothiophen-2-yl)methoxy)phenyl)-3,3-dimethylbutanamide]
EC50 [1]: < 2000 nM

COC(=O)Nc1ccc(OCc2ccc(F)cc2)cc1N [V, Methyl 2-amino-4-(4-fluorobenzyloxy)phenylcarbamate]
EC50 [2]: < 15000 nM

CCOC(=O)Nc1ccc(NCc2ccc(F)cc2)nc1N [flupirtine]
EC50 [1]: < 15000 nM
EC50 [2]: < 15000 nM

CCOC(=O)Nc1ccc(NCc2ccc(F)cc2)cc1N [retigabine, N-[2-amino-4-(4-fluorobenzylamino)phenyl]carbamic acid, ethyl ester]
EC50: < 2000 nM
EC50 (Rb+ efflux, PC-12 cells, depolarization buffer 15 mM KCl, 10 min, compounds of formula B): < 2000 nM
